From ChEMBL document CHEMBL5647684, “Expression of Src and FAK in hepatocellular carcinoma and the effect of Src inhibitors on hepatocellular carcinoma in vitro” (2009) come the findings set out here.

By GI50 is commonly meant the concentration giving 50% growth inhibition.

Some results are limits rather than exact numbers.

Assay type in all cases: functional
The test system of one experiment is Huh-7. The experiment is described as follows: Growth inhibition of human Huh-7 cells after 3 days by MTT assay. Particulars: time 3 day; for GI50: Homo sapiens, Huh-7, 72 h.
In a further experiment the test system is HepG2. The experiment is described as follows: Growth inhibition of human HepG2 cells after 3 days by MTT assay. The note with it: time 3 day; for GI50: Homo sapiens, HepG2, 72 h. (In general: Tetrazolium assays rely on reduction of a dye to a coloured formazan, in cell work by metabolically active cells.)
A further experiment relates to PLC-PRF-5. Kind of experiment: Growth inhibition of human PLC-PRF-5 cells after 3 days by MTT assay. Particulars: time 3 day.
A further experiment deals with Hep 3B2. The experiment is described as follows: Growth inhibition of human Hep3B cells after 3 days by MTT assay. The note with it: time 3 day.

In the experiment on Huh-7, `Cc1nc(Nc2ncc(C(=O)Nc3c(C)cccc3Cl)s2)cc(N2CCN(CCO)CC2)n1` [DASATINIB ANHYDROUS] displayed a GI50 of 1970 nM and a GI80 of 7135 nM. Moreover, in the experiment on HepG2, the GI50 is > 50000 nM and the GI80 is >50000 nM.
Regarding `O=C(Cc1ccc(-c2ccc(OCCN3CCOCC3)cc2)cn1)NCc1ccccc1` [TIRBANIBULIN], the GI50 in the experiment on Huh-7 came to 9 nM; in the experiment with PLC-PRF-5 (Homo sapiens, PLC-PRF-5, 72 h), 13 nM; in the experiment with Hep 3B2 (Homo sapiens, Hep3B, 72 h) it was 26 nM; in the experiment with HepG2, 60 nM. The GI80 worked out at 23 nM in the experiment on Huh-7, 24 nM in the experiment on PLC-PRF-5, 88 nM in the experiment on Hep 3B2 and 3658 nM in the experiment with HepG2.
